Results taken from patent US12528774B2, “Thiosemicarbazone compounds and uses thereof” (The Regents of the University of California, priority 2019, dated 2026).
Like-named read-outs stand apart in the source and are kept apart here.

Test system: MIAPACA2 cells
Assay: Proliferation assay (CellTiter-Glo, 72 h) in MIAPACA2 cells
Format: cell-based, human
Conditions: for IC90: MIAPACA2, 72 h; for increase in potency under copper supplementation versus non-copper-supplemented IC90: 20 μM CuCl2; for potency relative to non-fluorinated analog: IC90 without copper, analog of same 4′ amine series (HCT1, HCT6 or HCT11)
Experimental: IC90 values against MIAPACA2 cells was first determined in normal cell culture conditions (DMEM media and 10% FBS). Compounds were separated into three series (4′ primary amines, 4′ secondary amines, 4′ tertiary amines) to reflect the relative degrees of 4′ amine methylation. […] (Refs 41, 42).
HCT compounds are known to be copper chelators. (Ref. 32). To test whether the compounds described herein were similarly potentiated, the IC90 (+Cu IC90) values were determined against MIAPACA2 cells in media supplemented with physiologically relevant levels of copper (DMEM media+10% FBS+20 μM CuCl2). MIAPACA2 cells were treated with the indicated HCT±20 μM Cu(II) for 72 hours, then cell viability was measured with CellTiter-Glo to determine IC90 values.
(§1) Proliferation assay: Cells were plated in 384-well plates (500 cells/well for adherent cell lines in 30 μl volume). Drugs were serially diluted to the desired concentrations and an equivalent volume of DMSO was added to vehicle control. Following 72 h incubation, ATP content was measured using CellTiter-Glo reagent according to manufacturer's instructions (Promega, CellTiter-Glo Luminescent Cell Viability Assay), and analyzed by SpectraMax luminometer (Molecular Devices). IC50 and IC90 values, concentrations required to inhibit proliferation by 50% and 90% respectively compared to DMSO treated cells, were calculated using Prism 6.0 h (Graphpad Software).
as §1, with “assay.” for “assay:”, “Software). The 430-member protein kinase inhibitor library used for the chemical genomics screen was purchased from Selleckchem, Catalog No. L1200.” for “Software).”

[1] = Homo sapiens, MIA PaCa-2, 72 h, DMEM + 10% FBS, no copper supplementation, read-out: IC90
[2] = DMEM + 10% FBS + 20 μM CuCl2, read-out: +Cu(II) IC90

IC90 [1] [nM] | IC90 [2] [nM] | increase in potency under copper supplementation versus non-copper-supplemented IC90 | increase in potency under copper supplementation versus non-copper-supplemented IC90 (listed as 11) | increase in potency under copper supplementation versus non-copper-supplemented IC90 (listed as 6) | SMILES | potency relative to non-fluorinated analog | effect on proliferation (20 μM Cu(II) alone)
11200 | 7870 | – | – | – | CNC(=S)N/N=C/c1nccc2c(N)cccc12 (mixture of isomers) [HCT10, 2-((5-Aminoisoquinolin-1-yl)methylene)-N-methylhydrazine-1-carbothioamide and (Z)-2-((5-Aminoisoquinolin-1-yl)methylene)-N-methylhydrazine-1-carbothioamide] | – | –
29600 | 73.7 | 400 fold | significantly increased | – | CN(C)C(=S)N/N=C/c1nccc2ccccc12 (mixture of isomers) [HCT11, (E)-2-(Isoquinolin-1-ylmethylene)-N,N-dimethylhydrazine-1-carbothioamide and (Z)-2-(Isoquinolin-1-ylmethylene)-N,N-dimethylhydrazine-1-carbothioamide] | – | –
274 | 26.6 | – | – | – | CN(C)C(=S)N/N=C/c1ncc(F)c2ccccc12 (mixture of isomers) [HCT12, (E)-2-((4-Fluoroisoquinolin-1-yl)methylene)-N,N-dimethylhydrazine-1-carbothioamide and (Z)-2-((4-Fluoroisoquinolin-1-yl)methylene)-N,N-dimethylhydrazine-1-carbothioamide] | roughly 110 fold | –
272 | 38.4 | – | – | – | CNc1c(F)ccc2c(/C=N/NC(=S)N(C)C)nccc12 (mixture of isomers) [HCT14, (E)-2-((6-Fluoro-5-(methylamino)isoquinolin-1-yl)methylene)-N,N-dimethylhydrazine-1-carbothioamide and (Z)-2-((6-Fluoro-5-(methylamino)isoquinolin-1-yl)methylene)-N,N-dimethylhydrazine-1-carbothioamide] | – | –
327 | 42.3 | – | – | – | CNc1cccc2c(/C=N/NC(=S)N(C)C)ncc(F)c12 (mixture of isomers) [HCT15, (E)-2-((4-Fluoro-5-(methylamino)isoquinolin-1-yl)methylene)-N,N-dimethylhydrazine-1-carbothioamide and (Z)-2-((4-Fluoro-5-(methylamino)isoquinolin-1-yl)methylene)-N,N-dimethylhydrazine-1-carbothioamide] | – | –
4240 | 607 | significantly increased | – | – | CNC(=S)N/N=C/c1nccc2c(NC)cccc12 [HCT9, E)-N-Methyl-2-((5-(methylamino)isoquinolin-1-yl)methylene)hydrazine-1-carbothioamide and (Z)—N-Methyl-2-((5-(methylamino)isoquinolin-1-yl)methylene)hydrazine-1-carbothioamide] | – | –

Continued, compound first:

SMILES | IC90 [1] [nM] | IC90 [2] [nM] | increase in potency under copper supplementation versus non-copper-supplemented IC90 | increase in potency under copper supplementation versus non-copper-supplemented IC90 (listed as 11) | increase in potency under copper supplementation versus non-copper-supplemented IC90 (listed as 6) | potency relative to non-fluorinated analog | effect on proliferation (20 μM Cu(II) alone)
[Cl][Cu][Cl] [Cu(II), CuCl2] | – | – | – | – | – | – | did not affect proliferation at all
NC(=S)N/N=C/c1nccc2ccccc12 [HCT1, (E)-2-(isoquinolin-1-ylmethylene)hydrazine-1-carbothioamide, reference compound] | 18100 | 2210 | 10 fold | – | – | – | –
NC(=S)N/N=C/c1ncc(F)c2ccccc12 [HCT2, (E)-2-((4-Fluoroisoquinolin-1-yl)methylene)hydrazine-1-carbothioamide] | 24600 | 2060 | – | – | – | did not show an increase in potency | –
NC(=S)N/N=C/c1nccc2cc(F)ccc12 [HCT3, (E)-2-((6-Fluoroisoquinolin-1-yl)methylene)hydrazine-1-carbothioamide] | 5440 | 2040 | – | – | – | 3 fold | –
CNc1cccc2c(/C=N/NC(N)=S)nccc12 [HCT4, (E)-2-((5-(Methylamino)isoquinolin-1-yl)methylene)hydrazine-1-carbothioamide, reference compound] | 11500 | 5330 | – | – | – | – | –
NC(=S)N/N=C/c1nccc2c(N)cccc12 [HCT5, (E)-2-((5-Aminoisoquinolin-1-yl)methylene)hydrazine-1-carbothioamide, reference compound] | 40500 | 71100 | attenuated | – | – | – | –
CNC(=S)N/N=C/c1nccc2ccccc12 [HCT6, (E)-2-(isoquinolin-1-ylmethylene)-N-methylhydrazine-1-carbothioamide, reference compound] | 18700 | 331 | 60 fold | – | significantly increased | – | –
CNC(=S)N/N=C/c1ncc(F)c2ccccc12 [HCT7, (E)-2-((4-Fluoroisoquinolin-1-yl)methylene)-N-methylhydrazine-1-carbothioamide] | 2080 | 114 | – | – | – | significantly more potent | –
CNC(=S)N/N=C/c1nccc2cc(F)ccc12 [HCT8, (E)-2-((6-Fluoroisoquinolin-1-yl)methylene)-N-methylhydrazine-1-carbothioamide] | 4080 | 233 | – | – | – | significantly more potent | –
